Test: Moisture sorption analysis of solid forms
Format: physicochemical
Conditions: 25° C.
Experimental: Water sorption and desorption studies were conducted on automated vapor sorption analyzer (TA instruments Q5000 SA). The microbalance was calibrated using a 100 mg standard weight. The relative humidity sensor was calibrated at 5.0, 11.3, 32.8, 52.8, 75.3, and 84.3% RH (25° C.) using saturated salt solutions. Approximately 10-20 mg of crystalline monohydrate 8-((2-fluoro-4-(methylthio)phenyl)amino)-2-(2-hydroxyethoxy)-7-methyl-3,4-dihydro-2,7-naphthyrdine-1,6(2H,7H)-dione, Form 3 was placed in the quartz sample holder and dried at ≤3% relative humidity (RH) at 25° C. […] A maximum equilibration time of 120 minutes was used for all steps. The weight gain at each of the % RH steps is based on the weight after the initial drying step at 0% RH. The weight change of the sample was not used to assess equilibrium and instead all steps were programed to be 120 minutes. After data collection was complete, data analysis was performed using commercially available TA universal analysis software and Microsoft Excel.
FIG. 5 depicts the sorption isotherm of crystalline monohydrate 8-((2-fluoro-4-(methylthio)phenyl)amino)-2-(2-hydroxyethoxy)-7-methyl-3,4-dihydro-2,7-naphthyridine-1,6(2H,7H)-dione, Form 3. […] Crystalline anhydrous 8-((2-fluoro-4-(methylthio)phenyl)amino)-2-(2-hydroxyethoxy)-7-methyl-3,4-dihydro-2,7-naphthyridine-1,6(2H,7H)-dione, Form 2 rehydrates to crystalline monohydrate 8-((2-fluoro-4-(methylthio)phenyl)amino)-2-(2-hydroxyethoxy)-7-methyl-3,4-dihydro-2,7-naphthyridine-1,6(2H,7H)-dione, Form 3 at 25% RH at 25° C. as confirmed by PXRD analysis. Based on this analysis, crystalline anhydrous 8-((2-fluoro-4-(methylthio)phenyl)amino)-2-(2-hydroxyethoxy)-7-methyl-3,4-dihydro-2,7-naphthyridine-1,6(2H,7H)-dione, Form 2 is stable below 10% RH at 25° C., and crystalline monohydrate 8-((2-fluoro-4-(methylthio)phenyl)amino)-2-(2-hydroxyethoxy)-7-methyl-3,4-dihydro-2,7-naphthyridine-1,6(2H,7H)-dione, Form 3 is stable above 30% RH at 25° C.

relative humidity at which the solid form is stable	relative humidity at which anhydrous Form 2 rehydrates to monohydrate Form 3 (confirmed by PXRD) [% RH]	relative humidity at which monohydrate Form 3 dehydrates to anhydrous Form 2 (confirmed by PXRD) [% RH]	SMILES
below 10 % RH	25	–	CSc1ccc(Nc2c3c(cc(=O)n2C)CCN(OCCO)C3=O)c(F)c1 [Form 2, 8-((2-fluoro-4-(methylthio)phenyl)amino)-2-(2-hydroxyethoxy)-7-methyl-3,4-dihydro-2,7-naphthyridine-1,6(2H,7H)-dione]
above 30 % RH	–	15	CSc1ccc(Nc2c3c(cc(=O)n2C)CCN(OCCO)C3=O)c(F)c1 [Form 3, 8-((2-fluoro-4-(methylthio)phenyl)amino)-2-(2-hydroxyethoxy)-7-methyl-3,4-dihydro-2,7-naphthyridine-1,6(2H,7H)-dione]

— patent US11802127B2, “3,4-dihydro-2,7-naphthyridine-1,6(2H,7H)-diones as MEK inhibitors” (Pfizer Inc., priority 2021, dated 2023)
